Source: ChEMBL document CHEMBL3217463, “Design, synthesis and biological evaluation of -lactam hydroxamate based TACE inhibitors” (Medchemcomm, 2011)
pIC50: −log10 of the molar value.

Assays:
[1] = biological target: T1, Disintegrin and metalloproteinase domain-containing protein 17 (Homo sapiens, UniProt P78536); assay: Ratio of IC50 for human catalytic domain of TACE to IC50 for MMP14 (unknown origin)
[2] = biological target: T2, Matrilysin (Homo sapiens, UniProt P09237); assay: Inhibition of MMP7 (unknown origin) by fluorescence-based FRET assay
T2 sequence (P09237 whole entry): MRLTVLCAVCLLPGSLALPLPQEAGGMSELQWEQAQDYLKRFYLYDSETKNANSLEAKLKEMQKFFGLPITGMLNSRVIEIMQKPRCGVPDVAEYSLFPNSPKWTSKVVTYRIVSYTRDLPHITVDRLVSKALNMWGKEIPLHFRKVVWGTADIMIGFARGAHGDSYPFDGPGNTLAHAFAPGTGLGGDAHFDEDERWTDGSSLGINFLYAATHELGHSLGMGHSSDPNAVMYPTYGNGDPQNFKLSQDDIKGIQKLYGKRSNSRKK

[3] = biological target: T1, Disintegrin and metalloproteinase domain-containing protein 17; assay: Ratio of IC50 for human catalytic domain of TACE to IC50 for MMP7 (unknown origin)
[4] = biological target: T1, Disintegrin and metalloproteinase domain-containing protein 17; assay: Ratio of IC50 for human catalytic domain of TACE to IC50 for MMP8 (unknown origin)
[5] = biological target: Matrix metalloproteinase-9 (Homo sapiens, UniProt P14780); assay: Inhibition of MMP9 (unknown origin) by fluorescence-based FRET assay
[6] = test system: Rattus norvegicus; assay: Toxicity in Wistar rat assessed as relative liver weight at 100 mg/kg, po bid for 28 days (reference value: 3.659 +/- 0.1 %); assay type: organism-based; set-up: dose 100 mg/kg, route oral; details: in vivo, 672 h
[7] = Elimination rate constant in Wistar rat at 5 mg/kg, iv; assay type: ADME, organism-based; set-up: dose 5 mg/kg, route intravenous; details: in vivo
[8] = biological target: 72 kDa type IV collagenase (Homo sapiens, UniProt P08253); assay: Inhibition of MMP2 (unknown origin) by fluorescence-based FRET assay
[9] = Oral bioavailability in Wistar rat at 5 mg/kg; assay type: ADME, organism-based; details: in vivo
[10] = biological target: Matrix metalloproteinase-14 (Homo sapiens, UniProt P50281); assay: Inhibition of MMP14 (unknown origin) by fluorescence-based FRET assay
[11] = test system: Rattus norvegicus; assay: Toxicity in Wistar rat assessed as alanine aminotransferase at 100 mg/kg, po bid for 28 days (reference value: 20.78 +/- 1.31 U/L); assay type: organism-based; set-up: dose 100 mg/kg, route oral; details: in vivo, 672 h
[12] = AUC in Wistar rat at 5 mg/kg, po; assay type: ADME, organism-based; set-up: dose 5 mg/kg, route oral; details: plasma
[13] = test system: Rattus norvegicus; assay: Toxicity in Wistar rat assessed as adverse changes at 100 mg/kg, po bid for 28 days; assay type: organism-based; set-up: dose 100 mg/kg, route oral; details: in vivo, 672 h
[14] = biological target: Collagenase 3 (Homo sapiens, UniProt P45452); assay: Inhibition of MMP13 (unknown origin) by fluorescence-based FRET assay
[15] = biological target: T1, Disintegrin and metalloproteinase domain-containing protein 17; assay: Ratio of IC50 for human catalytic domain of TACE to IC50 for MMP13 (unknown origin)
[16] = biological target: T1, Disintegrin and metalloproteinase domain-containing protein 17; assay: Inhibition of human catalytic domain of TACE assessed as inhibit the cleavage of the substrate by fluorescence-based FRET assay
[17] = AUC in Wistar rat at 5 mg/kg, iv; assay type: ADME, organism-based; set-up: dose 5 mg/kg, route intravenous; details: plasma
[18] = test system: Rattus norvegicus; assay: Toxicity in Wistar rat assessed as relative brain weight at 100 mg/kg, po bid for 28 days (reference value: 0.727+/- 0.024 %); assay type: organism-based; set-up: dose 100 mg/kg, route oral; details: in vivo, 672 h
[19] = test system: Rattus norvegicus; assay: Toxicity in Wistar rat assessed as total bilirubin at 100 mg/kg, po bid for 28 days (reference value: 0.14 +/- 0.01 mg/dL); assay type: organism-based; set-up: dose 100 mg/kg, route oral; details: in vivo, 672 h
[20] = test system: Rattus norvegicus; assay: Elimination rate constant in Wistar rat at 5 mg/kg, po; assay type: ADME, organism-based; set-up: dose 5 mg/kg, route oral; details: in vivo
[21] = biological target: T1, Disintegrin and metalloproteinase domain-containing protein 17; assay: Ratio of IC50 for human catalytic domain of TACE to IC50 for MMP3 (unknown origin)
[22] = test system: Rattus norvegicus; assay: Half life in Wistar rat at 5 mg/kg, po; assay type: ADME, organism-based; set-up: dose 5 mg/kg, route oral; details: in vivo
[23] = test system: Rattus norvegicus; assay: Toxicity in Wistar rat assessed as RBC count at 100 mg/kg, po bid for 28 days (reference value: 7.38 +/- 0.11 10^6/ul); assay type: organism-based; set-up: dose 100 mg/kg, route oral; details: in vivo, 672 h
[24] = Tmax in Wistar rat at 5 mg/kg, po; assay type: ADME, organism-based; set-up: dose 5 mg/kg, route oral; details: in vivo
[25] = Half life in Wistar rat at 5 mg/kg, iv; assay type: ADME, organism-based; set-up: dose 5 mg/kg, route intravenous; details: in vivo
[26] = biological target: T3, Interstitial collagenase (Homo sapiens, UniProt P03956); assay: Inhibition of MMP1 (unknown origin) by fluorescence-based FRET assay
T3 sequence (P03956 whole entry): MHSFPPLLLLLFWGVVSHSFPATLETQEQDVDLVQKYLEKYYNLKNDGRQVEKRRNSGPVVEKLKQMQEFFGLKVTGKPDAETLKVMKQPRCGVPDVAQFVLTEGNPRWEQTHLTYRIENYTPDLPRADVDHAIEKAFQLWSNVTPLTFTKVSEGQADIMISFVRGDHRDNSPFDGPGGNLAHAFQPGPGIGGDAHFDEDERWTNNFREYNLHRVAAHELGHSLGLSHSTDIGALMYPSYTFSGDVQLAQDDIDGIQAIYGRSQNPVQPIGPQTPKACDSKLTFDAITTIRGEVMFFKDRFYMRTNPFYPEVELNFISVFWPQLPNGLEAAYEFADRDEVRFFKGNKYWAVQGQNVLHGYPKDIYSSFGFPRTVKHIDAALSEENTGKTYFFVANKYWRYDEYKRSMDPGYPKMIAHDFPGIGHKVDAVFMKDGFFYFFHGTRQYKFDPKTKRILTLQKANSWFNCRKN

[27] = biological target: Neutrophil collagenase (Homo sapiens, UniProt P22894); assay: Inhibition of MMP8 (unknown origin) by fluorescence-based FRET assay
[28] = test system: Rattus norvegicus; assay: Toxicity in Wistar rat assessed as alkaline phosphatase at 100 mg/kg, po bid for 28 days (reference value: 134.66 +/- 5.3 U/L); assay type: organism-based; set-up: dose 100 mg/kg, route oral; details: in vivo, 672 h
[29] = test system: Rattus norvegicus; assay: Toxicity in Wistar rat assessed as body weight at 100 mg/kg, po bid for 28 days; assay type: organism-based; set-up: dose 100 mg/kg, route oral; details: in vivo, 672 h
[30] = biological target: T1, Disintegrin and metalloproteinase domain-containing protein 17; assay: Ratio of IC50 for human catalytic domain of TACE to IC50 for MMP1 (unknown origin)
[31] = test system: Rattus norvegicus; assay: Toxicity in Wistar rat assessed as relative spleen weight at 100 mg/kg, po bid for 28 days (reference value: 0.201+/- 0.007 %); assay type: organism-based; set-up: dose 100 mg/kg, route oral; details: in vivo, 672 h
[32] = test system: Mus musculus; assay: Antiinflammatory activity in po dosed Swiss Albino mouse assessed as inhibition of LPS-induced TNFalpha secretion in blood treated 0.5 hrs before LPS and measured after 1 hr of LPS stimulus by ELISA; assay type: functional
[33] = test system: Rattus norvegicus; assay: Toxicity in Wistar rat assessed as relative heart weight at 100 mg/kg, po bid for 28 days (reference value: 0.345 +/- 0.007 %); assay type: organism-based; set-up: dose 100 mg/kg, route oral; details: in vivo, 672 h
[34] = test system: Blood; assay: Antiinflammatory activity in human whole blood assessed as inhibition of LPS-induced TNFalpha secretion by ELISA; assay type: functional, tissue-based

T1 sequence (P78536 whole entry, the tested form may be a part): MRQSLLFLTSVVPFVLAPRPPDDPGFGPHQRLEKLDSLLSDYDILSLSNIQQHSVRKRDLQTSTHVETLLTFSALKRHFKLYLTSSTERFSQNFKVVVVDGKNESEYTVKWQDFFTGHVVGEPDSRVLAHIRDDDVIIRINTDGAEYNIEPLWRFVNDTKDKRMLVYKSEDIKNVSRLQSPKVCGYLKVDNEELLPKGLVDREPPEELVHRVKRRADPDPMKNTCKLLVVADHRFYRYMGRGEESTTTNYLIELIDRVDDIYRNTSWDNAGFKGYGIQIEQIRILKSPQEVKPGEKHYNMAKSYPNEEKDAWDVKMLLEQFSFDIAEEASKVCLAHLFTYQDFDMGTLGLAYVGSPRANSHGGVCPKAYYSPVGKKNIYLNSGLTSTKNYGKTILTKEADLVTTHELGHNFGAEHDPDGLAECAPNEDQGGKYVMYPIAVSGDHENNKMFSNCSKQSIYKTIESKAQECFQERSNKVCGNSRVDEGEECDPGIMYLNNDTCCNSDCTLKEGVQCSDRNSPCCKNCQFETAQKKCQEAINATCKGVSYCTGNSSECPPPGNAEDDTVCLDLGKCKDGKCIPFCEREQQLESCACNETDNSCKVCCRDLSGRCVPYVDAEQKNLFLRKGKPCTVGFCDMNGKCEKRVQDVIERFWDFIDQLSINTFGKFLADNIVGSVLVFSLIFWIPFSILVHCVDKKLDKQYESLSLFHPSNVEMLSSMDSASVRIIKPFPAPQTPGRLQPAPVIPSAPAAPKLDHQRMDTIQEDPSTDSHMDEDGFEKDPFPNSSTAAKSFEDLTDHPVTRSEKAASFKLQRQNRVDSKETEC
Sequence of Matrix metalloproteinase-9 (P14780 whole entry): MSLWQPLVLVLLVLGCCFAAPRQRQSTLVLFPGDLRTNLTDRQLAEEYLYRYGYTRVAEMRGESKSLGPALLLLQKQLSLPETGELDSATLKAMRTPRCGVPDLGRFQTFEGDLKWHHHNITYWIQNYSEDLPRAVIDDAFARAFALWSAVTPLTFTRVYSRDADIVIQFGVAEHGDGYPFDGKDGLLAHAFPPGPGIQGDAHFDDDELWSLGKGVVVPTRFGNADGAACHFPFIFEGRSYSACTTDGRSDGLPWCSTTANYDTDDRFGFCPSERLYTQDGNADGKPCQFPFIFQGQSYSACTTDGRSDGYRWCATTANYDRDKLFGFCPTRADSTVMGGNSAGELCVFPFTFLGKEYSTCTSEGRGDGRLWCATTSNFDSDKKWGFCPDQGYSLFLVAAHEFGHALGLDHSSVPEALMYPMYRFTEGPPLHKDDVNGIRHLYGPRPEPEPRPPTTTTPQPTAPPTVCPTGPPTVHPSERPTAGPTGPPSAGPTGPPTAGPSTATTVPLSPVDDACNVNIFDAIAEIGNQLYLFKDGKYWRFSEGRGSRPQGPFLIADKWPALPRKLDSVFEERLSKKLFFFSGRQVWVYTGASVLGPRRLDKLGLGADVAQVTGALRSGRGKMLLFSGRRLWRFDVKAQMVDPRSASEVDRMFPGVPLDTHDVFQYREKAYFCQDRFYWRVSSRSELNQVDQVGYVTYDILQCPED
Sequence of Neutrophil collagenase (P22894 whole entry): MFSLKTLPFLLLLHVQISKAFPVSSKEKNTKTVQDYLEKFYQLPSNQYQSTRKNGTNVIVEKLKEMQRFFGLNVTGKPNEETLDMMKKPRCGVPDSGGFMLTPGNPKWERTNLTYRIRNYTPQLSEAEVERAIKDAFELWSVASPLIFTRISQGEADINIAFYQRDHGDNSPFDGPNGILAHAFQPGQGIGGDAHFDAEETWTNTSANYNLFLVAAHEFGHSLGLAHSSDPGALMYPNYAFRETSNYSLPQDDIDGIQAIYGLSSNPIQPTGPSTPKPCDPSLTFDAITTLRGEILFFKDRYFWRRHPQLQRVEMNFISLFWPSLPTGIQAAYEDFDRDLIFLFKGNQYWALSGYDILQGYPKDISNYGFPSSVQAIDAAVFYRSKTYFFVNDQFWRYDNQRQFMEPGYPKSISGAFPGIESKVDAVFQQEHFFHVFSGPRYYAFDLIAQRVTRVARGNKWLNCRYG
Sequence of 72 kDa type IV collagenase (P08253 whole entry): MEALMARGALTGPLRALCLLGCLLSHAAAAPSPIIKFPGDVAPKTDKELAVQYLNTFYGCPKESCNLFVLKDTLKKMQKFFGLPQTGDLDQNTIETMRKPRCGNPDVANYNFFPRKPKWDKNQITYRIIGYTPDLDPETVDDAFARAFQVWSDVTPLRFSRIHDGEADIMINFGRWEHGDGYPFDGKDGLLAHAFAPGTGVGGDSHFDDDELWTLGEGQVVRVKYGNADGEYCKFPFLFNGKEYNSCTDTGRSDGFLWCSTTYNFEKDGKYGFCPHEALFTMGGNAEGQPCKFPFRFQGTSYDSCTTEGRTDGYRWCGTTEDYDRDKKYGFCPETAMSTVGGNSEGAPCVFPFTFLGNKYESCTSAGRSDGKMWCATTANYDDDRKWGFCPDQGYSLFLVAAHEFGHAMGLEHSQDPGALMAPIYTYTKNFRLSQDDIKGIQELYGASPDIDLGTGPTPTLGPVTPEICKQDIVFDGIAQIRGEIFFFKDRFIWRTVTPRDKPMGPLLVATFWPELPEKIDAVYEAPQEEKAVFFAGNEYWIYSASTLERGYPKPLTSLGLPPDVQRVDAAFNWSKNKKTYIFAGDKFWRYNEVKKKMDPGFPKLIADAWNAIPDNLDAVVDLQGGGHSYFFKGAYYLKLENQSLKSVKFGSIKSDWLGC

## COCCc1cc(COc2ccc([C@]3(N)CCN([C@H](CC(C)C)C(=O)NO)C3=O)cc2)c2ccccc2n1
[1]
  Ratio IC50: > 500
[2]
  pIC50: 6.00
[3]
  Ratio IC50: > 500
[4]
  Ratio IC50: > 500
[5]
  pIC50: 5.92
[6]
  Activity: 3.801%
[7]
  k el: 0.000283 s⁻¹
[8]
  pIC50: 5.96
[9]
  bioavailability: 59.7%
[10]
  pIC50: 5.96
[11]
  Activity: 21.04 U/L
[12]
  AUC: 11800 ng·h/mL
[13]
  Activity: Non-toxic
[14]
  pIC50: 5.95
[15]
  Ratio IC50: > 500
[16]
  pIC50: 8.64
[17]
  AUC: 19700 ng·h/mL
[18]
  Activity: 0.703%
[19]
  Activity: 0.17 mg/dL
[20]
  Kel: 0.44 h⁻¹
[21]
  Ratio IC50: > 500
[22]
  t1/2: 3.81 h
[23]
  Activity: 8.01 ×10⁶ /uL
[24]
  Tmax: 0.33 h
[25]
  half-life: 1.09 h
[26]
  pIC50: 5.98
[27]
  pIC50: 6.00
[28]
  Activity: 121.2 U/L
[29]
  Activity: Non-toxic
[30]
  Ratio IC50: > 500
[31]
  Activity: 0.203%
[32]
  ED50: 3.1 mg/kg
[33]
  Activity: 0.358%
[34]
  pIC50: 7.89
